# In paper PMC10461462, “A critical inter‐subunit interaction for the transmission of the allosteric signal in the Agrobacterium tumefaciens ADP‐glucose pyrophosphorylase” (Protein Science : A Publication of the Protein Society, 2023):
# Like-named read-outs stand apart in the source and are kept apart here.
# T1: WT (Agrobacterium tumefaciens, UniProt P39669)
# T1 construct: gene glgC; His-tagged, from pBLH1/pBHL1 (pET28c derivative), expressed in E. coli BL21(DE3); homotetramer
# T1 sequence (P39669 1-420): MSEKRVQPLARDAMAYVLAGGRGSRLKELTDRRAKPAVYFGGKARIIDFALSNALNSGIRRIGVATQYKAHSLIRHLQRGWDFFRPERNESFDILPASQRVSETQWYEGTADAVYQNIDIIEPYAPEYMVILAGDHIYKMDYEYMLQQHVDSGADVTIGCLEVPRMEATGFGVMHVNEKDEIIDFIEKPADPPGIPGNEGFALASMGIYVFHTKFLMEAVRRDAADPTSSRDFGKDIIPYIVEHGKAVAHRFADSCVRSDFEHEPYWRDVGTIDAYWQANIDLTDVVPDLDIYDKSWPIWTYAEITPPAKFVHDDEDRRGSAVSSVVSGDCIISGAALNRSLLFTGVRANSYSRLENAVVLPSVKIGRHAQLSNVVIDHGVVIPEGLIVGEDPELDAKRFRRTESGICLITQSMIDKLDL
# Tests used:
# [1] = target: Agrobacterium tumefaciens ADP-glucose pyrophosphorylase mutant R11D (Agrobacterium tumefaciens) (UniProt P39669); experiment: SEC
# [2] = target: Agrobacterium tumefaciens ADP-glucose pyrophosphorylase mutant R11K (Agrobacterium tumefaciens) (UniProt P39669); experiment: SEC
# [3] = target: Agrobacterium tumefaciens ADP-glucose pyrophosphorylase mutant D141A (Agrobacterium tumefaciens) (UniProt P39669); experiment: SEC
# D141A [4] = target: T2, D141A (Agrobacterium tumefaciens, UniProt P39669, D141A); experiment: Activator saturation of ADP-Glc synthesis (Malachite Green) at pH 7.5 with 1.5 mM Glc1P and 4 mM ATP; modified Hill fit.; format: biochemical; settings: n = 2; read-out: A0.5
# T2 construct: gene glgC; His-tagged, from pBLH1/pBHL1 derivative, expressed in E. coli BL21(DE3); homotetramer
# Description: (§1) This condition was considered “saturating concentrations” of substrate. To analyze the effect of the activators in “sub‐saturating concentrations” of substrate, the concentration of ATP was 0.2 mM.
# (§2) The assays were performed as described in Materials and Methods in the presence of 4 mM ATP.
# (§3) (1 picture or pasted object on this page, not shown here)
# WT [5] = target: T1, WT; experiment: Thermal shift assay (SYPRO Orange) with varied ligand concentration in 50 mM HEPES pH 8.0, 0.02 mg/mL protein, 25-95 C; Tm versus log ligand concentration fitted to obtain Kd.; format: binding; settings: n = 3
# Description: (§4) We used thermal shift assays to find whether the effect of the mutation was on the ability of Fru6P/Pyr either to bind or activate the enzyme. Activators of ADP‐Glc PPase bind to the enzyme and stabilize it from thermal denaturation (Bhayani & Ballicora, [2022]).
# (§5) Thermal shift assays were performed as described (Hill et al., [2019]) using the QuantStudio™ 3 Real‐Time PCR System (Thermo Fisher Scientific) and QuantStudio™ Design and Analysis Software v1.5.1. The final volume for the assay was 20 μL and contained 50 mM HEPES (pH 8.0), SYPRO Orange Dye (Sigma‐Aldrich) (4×) and 0.02 mg/mL purified protein, in the absence or presence of 5 mM Fru6P, and 5 mM Pyr. A control with no protein was also performed for all the samples. A continuous temperature increases from 25.0 to 95.0°C was scanned at a ramp increment of 0.1°C per second. Scans were run in triplicates and averaged. The unfolding temperatures (T m ) of the proteins were measured using the minimum of the third derivative of the scanned fluorescence vs. temperature (d^3F/dT^3) (Bhayani & Ballicora, [2022]).
# (§6) Thermal Shift assays were used to study the relationship between the melting temperature ( Tm ) of a protein and the logarithm of the ligand concentration using the following equation (Bhayani & Ballicora, [2022]). y=Tm0+Alog101+10^x/Kd.
# (§7) In this equation, y is Tm , and x is the logarithm of the ligand concentration. […] The data was fitted to an equation using Origin™ 2017 and the Levenberg–Marquardt algorithm, to find the optimum parameters Tm0 , A , and Kd (Bhayani & Ballicora, [2022]). To ensure robustness and reliability, all thermal shift assays were conducted in triplicate.
# R11D = target: T3, R11D (Agrobacterium tumefaciens, UniProt P39669, R11D); experiment: as above; format: binding; settings: n = 3
# T3 construct: gene glgC; His-tagged, from pBLH1/pBHL1 derivative, expressed in E. coli BL21(DE3); homotetramer
# Description: as §4, §5, §6, §7
# D141E = target: T4, D141E (Agrobacterium tumefaciens, UniProt P39669, D141E); experiment: Activator saturation of ADP-Glc synthesis (PPi converted to phosphate, Malachite Green) in 50 mM HEPES pH 7.5, 7 mM MgCl2, 1.5 mM Glc1P, 1.5 mM ATP; modified Hill fit.; format: biochemical; settings: n = 2
# T4 construct: gene glgC; His-tagged, from pBLH1/pBHL1 derivative, expressed in E. coli BL21(DE3); homotetramer
# Description: as §1
# (§8) Table S1 . Kinetic parameters for the activators of the A. tumefaciens ADP -Glc PPase wild type, and mutants.
# (§9) a Assays were performed as described in Materials and Methods under “activator saturation assay”.
# (§10) b Activation fold is calculated by dividing the maximum velocity (Vm) by the velocity in the absence of activator (V0).
# R11D/D141R = target: T5, R11D/D141R (Agrobacterium tumefaciens, UniProt P39669, D141R/R11D); experiment: as above; format: biochemical; settings: n = 2; read-out: A0.5
# T5 construct: gene glgC; His-tagged, from pBLH1/pBHL1 derivative, expressed in E. coli BL21(DE3); homotetramer
# Description: as §1, §8, §9, §10
# WT [6] = target: T1, WT; experiment: as above; format: biochemical; settings: n = 2; read-out: A0.5
# Description: as §1, §8, §9, §10
# D141N [7] = target: T6, D141N (Agrobacterium tumefaciens, UniProt P39669, D141N); experiment: as above; format: biochemical; settings: n = 2; read-out: A0.5
# T6 construct: gene glgC; His-tagged, from pBLH1/pBHL1 derivative, expressed in E. coli BL21(DE3); homotetramer
# Description: as §1, §8, §9, §10
# D141A [8] = target: T2, D141A; experiment: as above; format: biochemical; settings: n = 2; read-out: A0.5
# Description: as §1, §8, §9, §10
# R11K = target: T7, R11K (Agrobacterium tumefaciens, UniProt P39669, R11K); experiment: as above; format: biochemical; settings: n = 2
# T7 construct: gene glgC; His-tagged, from pBLH1/pBHL1 derivative, expressed in E. coli BL21(DE3); homotetramer
# Description: as §1, §8, §9, §10
# R11A = tested on: T8, R11A; experiment: as above; format: biochemical; design: method as in values quoted from other papers; settings: n = 2; read-out: A0.5; cited from earlier work
# T8 construct: values from literature (Gomez-Casati et al., 2001)
# Description: as §1, §8, §9, §10
# [9] = target: Agrobacterium tumefaciens ADP-glucose pyrophosphorylase mutant D141N (Agrobacterium tumefaciens) (UniProt P39669); experiment: SEC
# [10] = target: Agrobacterium tumefaciens ADP-glucose pyrophosphorylase mutant D141E (Agrobacterium tumefaciens) (UniProt P39669); experiment: SEC
# D141N [11] = target: T6, D141N; experiment: Effector saturation of ADP-Glc synthesis (Malachite Green) at pH 7.5 with 1.5 mM Glc1P and 4 mM ATP, effector inhibiting instead of activating; modified Hill fit.; format: biochemical; settings: n = 2; read-out: A0.5 (mM), footnote: I0.5
# Description: as §1, §2, §3
# [12] = target: Agrobacterium tumefaciens ADP-glucose pyrophosphorylase mutant D141R (Agrobacterium tumefaciens) (UniProt P39669); experiment: SEC
# [13] = target: Agrobacterium tumefaciens ADP-glucose pyrophosphorylase double mutant R11D/D141R (Agrobacterium tumefaciens) (UniProt P39669); experiment: SEC
# SEC = target: the molecule itself; experiment: SEC
molecule,measurement,setting,value
Agrobacterium tumefaciens ADP-glucose pyrophosphorylase mutant R11D (from UniProt P39669) (enzyme),stoichiometry N,[1],4
Agrobacterium tumefaciens ADP-glucose pyrophosphorylase mutant R11K (from UniProt P39669) (enzyme),stoichiometry N,[2],4
Agrobacterium tumefaciens ADP-glucose pyrophosphorylase mutant D141A (from UniProt P39669) (enzyme),stoichiometry N,[3],4
"O=P(O)(O)OC[C@H]1OC(O)(CO)[C@@H](O)[C@@H]1O (some centres unmarked) [Fru6P, fructose 6-phosphate]",EC50,D141A [4],500 µM
same,Kd,WT [5],1510 µM
same,Kd,R11D,1820 µM
same,EC50,D141E; read-out: A0.5,30 µM
same,EC50,R11D/D141R,1320 µM
same,EC50,WT [6],340 µM
same,EC50,D141N [7],2970 µM
same,EC50,D141A [8],840 µM
same,EC50,R11K,50 µM
same,EC50,R11A,30 µM
Agrobacterium tumefaciens ADP-glucose pyrophosphorylase mutant D141N (from UniProt P39669) (enzyme),stoichiometry N,[9],4
Agrobacterium tumefaciens ADP-glucose pyrophosphorylase mutant D141E (from UniProt P39669) (enzyme),stoichiometry N,[10],4
"CC(=O)C(=O)O [Pyr, pyruvate]",EC50,D141A [4],49 µM
same,Kd,WT [5],233 µM
same,Kd,R11D,54 µM
same,EC50,D141E,60 µM
same,EC50,WT [6],450 µM
same,EC50,D141A [8],300 µM
same,EC50,R11K,40 µM
same,IC50,D141N [11],0.075 mM
Agrobacterium tumefaciens ADP-glucose pyrophosphorylase mutant D141R (from UniProt P39669) (enzyme),stoichiometry N,[12],2
Agrobacterium tumefaciens ADP-glucose pyrophosphorylase double mutant R11D/D141R (from UniProt P39669) (enzyme),stoichiometry N,[13],4
"Agrobacterium tumefaciens ADP-glucose pyrophosphorylase wild type (enzyme, ADP-glucose pyrophosphorylase (EC 2.7.7.27) of Agrobacterium tumefaciens, ~50 kDa subunit, encoded by plasmid pBHL1 (pET28c derivative) of Hill et al., 2019; also called ADP-Glc PPase; WT; source: E. coli BL21 (DE3), purified (His-Trap FF Ni2+ column, Superdex 200 gel filtration)) MSEKRVQPLARDAMAYVLAGGRGSRLKELTDRRAKPAVYFGGKARIIDFALSNALNSGIRRIGVATQYKAHSLIRHLQRGWDFFRPERNESFDILPASQRVSETQWYEGTADAVYQNIDIIEPYAPEYMVILAGDHIYKMDYEYMLQQHVDSGADVTIGCLEVPRMEATGFGVMHVNEKDEIIDFIEKPADPPGIPGNEGFALASMGIYVFHTKFLMEAVRRDAADPTSSRDFGKDIIPYIVEHGKAVAHRFADSCVRSDFEHEPYWRDVGTIDAYWQANIDLTDVVPDLDIYDKSWPIWTYAEITPPAKFVHDDEDRRGSAVSSVVSGDCIISGAALNRSLLFTGVRANSYSRLENAVVLPSVKIGRHAQLSNVVIDHGVVIPEGLIVGEDPELDAKRFRRTESGICLITQSMIDKLDL",stoichiometry N,SEC,4
